Measurements reported in US12436156B2, “Methods of determining pH and calcium or chloride concentration in samples” (The University of Chicago, priority 2018, dated 2025).
Where a name gives a salt, the structure may show the parent alone.

B1: rhASM: Recombinant human acid sphingomyelinase, enzyme replacement therapy for NP-A/B (protein, UniProt P17405 47-631, looked up)
Sphingomyelin …: LALSDSRVLWAPAEAHPLSPQGHPARLHRIVPRLRDVFGWGNLTCPICKGLFTAINLGLKKEPNVARVGSVAIKLCNLLKIAPPAVCQSIVHLFEDDMVEVWRRSVLSPSEACGLLLGSTCGHWDIFSSWNISLPTVPKPPPKPPSPPAPGAPVSRILFLTDLHWDHDYLEGTDPDCADPLCCRRGSGLPPASRPGAGYWGEYSKCDLPLRTLESLLSGLGPAGPFDMVYWTGDIPAHDVWHQTRQDQLRALTTVTALVRKFLGPVPVYPAVGNHESTPVNSFPPPFIEGNHSSRWLYEAMAKAWEPWLPAEALRTLRIGGFYALSPYPGLRLISLNMNFCSRENFWLLINSTDPAGQLQWLVGELQAAEDRGDKVHIIGHIPPGHCLKSWSWNYYRIVARYENTLAAQFFGHTHVDEFEVFYDEETLSRPLAVAFLAPSATTYIGLNPGYRVYQIDGNYSGSSHVVLDHETYILNLTQANIPGAIPHWQLLYRARETYGLPNTLPTAWHNLVYRMRGDMQLFQTFWFLYHKGHPPSEPCGTPCRLATLCAQLSARADSPALCRHLMPDGSLPEAQSLWPRPLFC

Assays:
Assay type in all cases: cell-based, human
lysosomes in HDF cells [1] = assay: 2-IM upon addition of lysosomal proton pump and ion channel blocker; conditions: ChloropHoreLy labelled, 500 nM bafilomycin A1 or 300 μM NPPB, 45 min
Procedure: Lysosomal pH and chloride measurements. Fibroblast cells are pulsed with 2 μM of I^mLy, ChloropHore or ChloropHoreLy for 1 h, chased for 9 h (30 min pulse and 1 h chase for J774. A1, BHK-21 and T47D cells) and then washed with 1×PBS and subjected for imaging.
2-IM upon addition of lysosomal proton pump and ion channel blocker. Upon lysosome labeling, final concentration of 500 nM bafilomycinA1 and 300 μM of 5-nitro-2-(3-phenylpropyl-amino) benzoic acid (NPPB) were added to cells and incubated for 45 min. Cells was then washed with PBS and imaged in Hank's Balanced Salt Solution (HBSS) containing the respective blocker compounds.
(§1) Image analysis for pH and sensors. Images were analyzed with ImageJ/Fiji 2.0.0-rc-54/1.51h. pH and chloride measurements are performed as described previously. To generate a density plot to represent lysosomal populations, the individual D/A (Y-axis) versus the corresponding R/G (X-axis) values was first plotted for each lysosome that was obtained for a given fibroblast sample comprising ˜60 cells and ˜600 lysosomes. Density plots were generated using 2D Kernel Density plot on Origin 2018 SR1 b9.5.1.195 (OriginLab, USA). […] To normalize between experiments done on different days, the lysosomal pH and Cl− of a sample of normal HDF cells was always measured as well, the density plot of which served as the reference. […]

lysosomes in HDF cells [2] = assay: 2-IM in pharmacologically induced cell culture models for NP-A/B and NP-C; conditions: HDF cells from a healthy individual; 65 μM AH or 20 μM U18666A, 24 h
Procedure: Niemann Pick type A/B and C models were prepared according to the previous reported method. Cells were incubated with 65 μM of the acid sphingomyelinase (ASM) inhibitor amitriptyline (AH) and 20 μM of the NPC1 inhibitor U18666A for 24 h to create a NP-A/B and NP-C models respectively. The cells are pulsed with 2 μM of ChloropHoreLY and either 65 μM AH or 20 μM U18666A for 1 h, chased with either 65 μM AH or 20 μM U18666A for 9 h and then washed with 1×PBS and imaged.
Image analysis for pH and sensors. Images were analyzed with ImageJ/Fiji 2.0.0-rc-54/1.51h. pH and chloride measurements are performed as described previously. To generate a density plot to represent lysosomal populations, the individual D/A (Y-axis) versus the corresponding R/G (X-axis) values was first plotted for each lysosome that was obtained for a given fibroblast sample comprising ˜60 cells and ˜600 lysosomes. Density plots were generated using 2D Kernel Density plot on Origin 2018 SR1 b9.5.1.195 (OriginLab, USA). This converted the individual scatter points into a population matrix as a probability density function. The density plot is then pseudo colored to represent high density in red (values close to 1) and low density in blue (values closer to 0). Those points with <10% probability on the plot were discarded. For normalization between days, the point of highest density (value =1) of normal HDF cells was designated as the center of the plot with x,y coordinates (1,1). To normalize between experiments done on different days, the lysosomal pH and Cl− of a sample of normal HDF cells was always measured as well, the density plot of which served as the reference. All density plots acquired on the same day with the same settings were thus normalized to the HDF cell density plots to enable comparison of data across different days.

[3] = test system: lysosomes of NP-C patient fibroblasts; assay: Lysosomal population rescue using β-CD in NP-C patient fibroblasts (2-IM); conditions: NP-C patient samples mutated in NPC1 or NPC2, 50 μM, 24 h
Procedure: (§2) Lysosomal population rescue using ASM and β-CD. Recombinant human acid sphingomyelinase was incubated with NP-A/B patient cells according to the previous method. Primary human fibroblasts derived from NP-A/B patients were maintained in DMEM medium with 1% FBS for 24 h. The medium was then changed to DMEM with 1% FBS containing 0.2% BSA and 5 μg of rhASM. After 24 h, the cells are pulsed with 2 μM of ChloropHoreLy for 1 h, chased for 9 h and then washed with 1×PBS and imaged. Primary human fibroblasts from NP-C patient were incubated with 50 μM of o-Hydroxypropyl-β-cyclodextrin (β-CD) for 24 h. The cells are pulsed with 2 μM of ChloropHoreLy and 50 μM of β-CD for 1 h, chased with 50 μM of β-CD for 9 h and then washed with 1×PBS and imaged.
as §1, with “lysosomes.” for “lysosomes. Density plots were generated using 2D Kernel Density plot on Origin 2018 SR1 b9.5.1.195 (OriginLab, USA).”

[4] = test system: lysosomes of NP-A and NP-B patient fibroblasts; assay: Lysosomal population rescue using ASM in NP-A/B patient fibroblasts (2-IM); conditions: 5 μg rhASM, 24 h
Procedure: as §2
as §1, with “lysosomes.” for “lysosomes. Density plots were generated using 2D Kernel Density plot on Origin 2018 SR1 b9.5.1.195 (OriginLab, USA).”

Molecule	high Cl-, high acidity lysosome population (2-IM profile) (lysosomes in HDF cells [1])	high chloride, high acidity lysosome population (2-IM profile) (lysosomes in HDF cells [2])	lysosome population in 2-IM profile (lysosomes in HDF cells [2])	other results
O=C(O)c1cc([N+](=O)[O-])ccc1NCCCc1ccccc1 [5-nitro-2-(3-phenylpropylamino) benzoic acid]	lost	–	–	–
CCN(CC)CCO[C@H]1CC[C@@]2(C)C(=CC[C@@H]3[C@@H]2CC[C@]2(C)C(=O)CC[C@@H]32)C1 [U18666A]	–	depletion	monodisperse	–
CN(C)CCC=C1c2ccccc2CCc2ccccc21 [amitriptyline hydrochloride]	–	depletion	monodisperse	–
CO/C1=C\C(C)=C\[C@@H](C)[C@@H](O)[C@@H](C)C/C(C)=C/C=C/[C@H](OC)[C@@H]([C@@H](C)[C@@H](O)[C@H](C)[C@@]2(O)C[C@@H](O)[C@H](C)[C@@H](C(C)C)O2)OC1=O [bafilomycin Al]	lost	–	–	–
o-2-hydroxypropyl-β-cyclodextrin [RCD]	–	–	–	lysosomes with higher lumenal Cl- and H+ content (2-IM profile) [3]: appearance; monodispersity of the 2-IM profile [3]: loss of monodispersity
B1	–	–	–	high chloride, high acidity lysosome population (2-IM profile) [4]: reemergence
